pIC50: −log10 of the molar value.
Experiments:
Cytochrome P450 2D6 = Cytochrome P450 2D6 (Homo sapiens, UniProt P10635); experiment: Cytochrome P450 inhibition, 2D6; assay type: in vitro ADME
[1] = Metabolic stability (microsomes, mice); assay type: in vitro ADME; conditions: for microsomal CLint: mouse, liver microsomes
[2] = tested on: MK-801-induced increase in immobility time; experiment: Modified forced swim test after chronic MK-801; assay type: in vivo, Albino Swiss mice; conditions: chronic (13 days) MK-801 0.4 mg/kg, mice
Experimental: The modified forced swim test was performed according to the method introduced by Noda ([Noda et al., 1995], [1997]; [Wierońska et al., 2015a]; [Woźniak et al., 2016a]). The swim tests were performed in a glass cylinder (height, 20 cm; internal diameter, 15 cm) containing 11 cm of water maintained at 23–24°C. After the acclimation period, the animals underwent the first swim test, where the immobility time was measured during a 3 min period (T1). On the next day, chronic (13 days) MK-801 administration (0.4 mg/kg, i.p.) was started. After a 1-day break, on the 15th day of experiment, the second swim session was performed and the immobility time during 3-min test was measured again (T2). The T2 - T1 difference was reported as the result of the experiment.

Cytochrome P450 2C19 = Cytochrome P450 2C19 (Homo sapiens, UniProt P33261); experiment: Cytochrome P450 inhibition, 2C19; assay type: in vitro ADME
Chain of Cytochrome P450 2C19 (P33261 whole entry): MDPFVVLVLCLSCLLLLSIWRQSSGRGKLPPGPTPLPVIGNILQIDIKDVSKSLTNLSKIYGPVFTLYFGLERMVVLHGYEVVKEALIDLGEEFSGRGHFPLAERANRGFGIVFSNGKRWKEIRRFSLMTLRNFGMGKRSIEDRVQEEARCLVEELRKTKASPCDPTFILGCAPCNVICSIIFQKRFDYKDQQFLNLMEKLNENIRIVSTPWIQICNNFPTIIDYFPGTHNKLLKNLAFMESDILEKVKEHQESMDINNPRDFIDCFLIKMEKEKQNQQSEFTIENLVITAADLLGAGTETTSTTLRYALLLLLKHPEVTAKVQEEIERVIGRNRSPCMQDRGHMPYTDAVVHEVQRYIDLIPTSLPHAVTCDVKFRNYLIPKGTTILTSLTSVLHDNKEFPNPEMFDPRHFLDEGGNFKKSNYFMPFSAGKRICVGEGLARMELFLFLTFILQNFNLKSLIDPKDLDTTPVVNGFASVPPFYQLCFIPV

[3] = tested on: MK-801-induced disruption in spatial delayed alternation; experiment: Spatial delayed alternation test (T-maze); assay type: in vivo, Wistar rats; conditions: 10 mg/kg, 30 min prior to MK-801 (0.1 mg/kg), rats
Experimental: The spatial delayed alternation test was performed using a wooden T-maze, according to [Sławińska et al., 2013] and [Wierońska et al., 2015b].
During the adaptation phase, lasting 3 days, the animals were allowed to freely explore the maze for 10 min. For the next 2 days, rats were confined to either of the two end-arms and allowed to drink a 10 % sucrose solution there for 10 min twice daily. On the following day, a 2-week training phase was started. The animals performed one training session per day, which consisted of one forced trial (i.e., one of the end-arms was closed) followed by ten free choice trials. During the free choice trial the animal was placed in the starting arm and after the guillotine door was raised, it was allowed to choose to enter one of the end-arms. After the response, the rat was placed back to the starting arm, where it stayed for 10 s. If the chosen end-arm was the opposite to the previously visited one, a correct response was scored, and the animal was closed in the compartment where it was allowed to drink the sucrose solution for 5 s. After an incorrect response, the animal was gently returned to the starting arm. The training phase was carried out until the animals scored 7 correct responses in a training session in 2 consecutive days.
The test was started 30 min after the MK-801 injection.

rotarod performance = experiment: Rotarod test (motor coordination); assay type: in vivo, Albino Swiss mice; conditions: 5, 15, and 30 mg/kg i.p., 30 min before the test trial, mice
Experimental: The animals were trained for 3 consecutive days at the speed of 18 rpm, one session per day for 3 min. If a mice fell during the habituation period, it was placed back on the apparatus. On the following day, the test trial was performed. After the mice were placed on the apparatus (Mouse Rota-Rod NG, UGO BASILE S.R.L.) moving at the speed of 12 rpm, the accelerating mode was started (maximum speed – 24 rpm). The latency to fall was measured during 3-min test session.

[4] = tested on: MK-801-induced deficits in the NOR test; experiment: Novel object recognition test (MK-801-induced deficits); assay type: in vivo, Albino Swiss mice; conditions: 30 min before MK-801 (0.3 mg/kg), mice
Experimental: The experiment was performed according to [Nilsson et al., 2007] with minor modifications ([Woźniak et al., 2016b]). Following a 2-day habituation period (10 min/day), a training trial was performed, where mice were allowed to explore two identical objects for 5 min. About 1 h later, a test trial was conducted, where one of the familiar object was replaced by a novel object. The animals were then allowed to explore the objects for 5 min. […] Time spend exploring (i.e., sniffing or touching) the familiar (Tfamiliar) or novel object (Tnovel) was measured by a trained observer and then the recognition index was calculated for each mouse [(Tnovel - Tfamiliar)/(Tfamiliar + Tnovel)] × 100.

[5] = tested on: amphetamine-induced hyperactivity; parameters: method as in Kalinichev et al., 2013; conditions: 100 and 150 mg/kg, subcutaneous; ref Kalinichev et al., 2013; cited from earlier work
Cytochrome P450 3A4 = Cytochrome P450 3A4 (Homo sapiens, UniProt P08684); experiment: Cytochrome P450 inhibition, 3A4; assay type: in vitro ADME
Chain of Cytochrome P450 3A4 (P08684 whole entry): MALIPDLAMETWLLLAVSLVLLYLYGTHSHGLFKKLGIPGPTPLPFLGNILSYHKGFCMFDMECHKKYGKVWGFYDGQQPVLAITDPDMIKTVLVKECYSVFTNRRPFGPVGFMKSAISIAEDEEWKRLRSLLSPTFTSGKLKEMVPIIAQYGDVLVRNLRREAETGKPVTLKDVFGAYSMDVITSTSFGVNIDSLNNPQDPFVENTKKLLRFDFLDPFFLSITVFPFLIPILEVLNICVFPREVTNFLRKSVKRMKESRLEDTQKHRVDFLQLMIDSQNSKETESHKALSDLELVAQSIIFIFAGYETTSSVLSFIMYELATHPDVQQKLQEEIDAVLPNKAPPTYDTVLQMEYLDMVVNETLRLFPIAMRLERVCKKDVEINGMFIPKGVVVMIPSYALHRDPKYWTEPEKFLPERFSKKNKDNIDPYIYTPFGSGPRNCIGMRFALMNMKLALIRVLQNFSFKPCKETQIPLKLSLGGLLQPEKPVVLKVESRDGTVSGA

Chain of Cytochrome P450 2D6 (P10635 whole entry): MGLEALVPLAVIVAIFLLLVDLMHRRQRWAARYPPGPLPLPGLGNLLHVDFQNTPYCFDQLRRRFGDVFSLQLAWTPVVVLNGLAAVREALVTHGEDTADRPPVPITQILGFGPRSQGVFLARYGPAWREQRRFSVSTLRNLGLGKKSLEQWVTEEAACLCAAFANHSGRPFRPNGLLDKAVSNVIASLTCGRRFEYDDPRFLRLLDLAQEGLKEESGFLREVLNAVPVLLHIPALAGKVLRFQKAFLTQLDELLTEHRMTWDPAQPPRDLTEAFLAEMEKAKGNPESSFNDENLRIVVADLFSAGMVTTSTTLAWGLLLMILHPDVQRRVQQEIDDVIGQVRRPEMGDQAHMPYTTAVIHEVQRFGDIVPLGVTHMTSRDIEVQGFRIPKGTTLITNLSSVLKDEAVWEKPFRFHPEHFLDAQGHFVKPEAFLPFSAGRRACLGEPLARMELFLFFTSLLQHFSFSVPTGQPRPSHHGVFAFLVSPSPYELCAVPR

COc1ccc(-c2cc3onc(-c4ccncc4)c3c(=O)n2C)cc1 [MMPIP, 6-(4-Methoxyphenyl)-5-methyl-3-(4-pyridinyl)-isoxazolo(4,5-c)pyridin-4(5H)-one]
pIC50 (Cytochrome P450 2D6): < 5.00 | Metabolic stability (microsomes, mice) [1]: 49.78 | microsomal CLint [1]: 38.7 µL/min/mg | Effect on MK-801-induced increase in immobility time (modified forced swim test) ([2]; 1 mg/kg i.p. acutely 30 min before T2): significant reversal of MK-801-induced effect | Effect on MK-801-induced increase in immobility time (modified forced swim test) ([2]; 15 mg/kg i.p. acutely 30 min before T2): significant reversal of MK-801-induced effect | pIC50 (Cytochrome P450 2C19): > 5.96 | Effect on MK-801-induced reduction of choice accuracy (spatial delayed alternation) [3]: rescued the MK-801–induced cognitive impairments | Motor impairments in the rotarod test (latency to fall) (rotarod performance): did not induce detectable motor impairments

CCc1nc2c(o1)CC(c1ccc(C)cc1C)CC2=O (stereo not drawn) [ADX71743, 6-(2,4-Dimethylphenyl)-2-ethyl-6,7-dihydro-4(5H)-benzoxazolone]
Effect on MK-801-induced reduction of recognition index (NOR) ([4]; 1 mg/kg i.p.): significant reversal of MK-801-induced effect | Effect on MK-801-induced reduction of recognition index (NOR) ([4]; 5 mg/kg i.p.): significant reversal of MK-801-induced effect | Effect on MK-801-induced reduction of recognition index (NOR) ([4]; 15 mg/kg i.p.): significant reversal of MK-801-induced effect | pIC50 (Cytochrome P450 2D6): < 5.00 | Metabolic stability (microsomes, mice) [1]: 0.01 | microsomal CLint [1]: 500 µL/min/mg | Activity in amphetamine-induced hyperactivity [5]: active | pIC50 (Cytochrome P450 2C19): 5.00 to 5.48 | pIC50 (Cytochrome P450 3A4): < 5.00 | Motor impairments in the rotarod test (latency to fall) (rotarod performance): did not induce detectable motor impairments
